Results from paper PMC5909127, “Optimization of a “bump-and-hole” approach to allele-selective BET bromodomain inhibition” (Chemical Science, 2018).

Assays:
CXCR2 (IL-8B) (h) = CXCR2 (IL-8B) (h) (Homo sapiens, UniProt P25025); experiment: CEREP ExpresSProfile; conditions: read-out: Mean % of control specific binding (±SD)
Excerpt: (§1) Receptor Reference Compound Mean % of control specific
Receptor & Ion-Channel Screening
CEREP ExpresSProfile panel

BRD2 BD2 WT = BRD2 BD2 WT (Homo sapiens, UniProt P25440); experiment: ITC; assay type: binding
BRD3 BD1 WT = BRD3 BD1 WT (Homo sapiens, UniProt Q15059); experiment: ITC; assay type: binding
BRD3 BD1 WT, sequence (Q15059 24-144): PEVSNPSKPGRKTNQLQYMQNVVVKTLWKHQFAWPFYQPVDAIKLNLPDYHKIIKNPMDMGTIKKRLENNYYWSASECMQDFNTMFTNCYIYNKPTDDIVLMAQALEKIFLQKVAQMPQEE

D1 (h) = D1 (h) (Homo sapiens, UniProt P21728); experiment: CEREP ExpresSProfile; conditions: read-out: Mean % of control specific binding (±SD)
D1 (h), sequence (P21728 whole entry): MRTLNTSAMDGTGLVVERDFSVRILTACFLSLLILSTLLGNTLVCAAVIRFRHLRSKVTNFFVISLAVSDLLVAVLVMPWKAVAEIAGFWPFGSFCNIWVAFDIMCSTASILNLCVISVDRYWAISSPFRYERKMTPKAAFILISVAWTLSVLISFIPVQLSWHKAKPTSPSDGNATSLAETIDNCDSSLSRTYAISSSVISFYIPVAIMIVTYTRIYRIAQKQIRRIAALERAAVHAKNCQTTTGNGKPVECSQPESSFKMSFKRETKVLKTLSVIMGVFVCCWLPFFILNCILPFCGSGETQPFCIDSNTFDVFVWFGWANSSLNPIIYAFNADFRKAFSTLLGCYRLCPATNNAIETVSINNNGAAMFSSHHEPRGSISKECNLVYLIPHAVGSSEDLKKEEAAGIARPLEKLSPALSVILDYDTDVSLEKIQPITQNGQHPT

A1 (h) = A1 (h) (Homo sapiens, UniProt P30542); experiment: CEREP ExpresSProfile; conditions: read-out: Mean % of control specific binding (±SD)
A1 (h), sequence (P30542 whole entry): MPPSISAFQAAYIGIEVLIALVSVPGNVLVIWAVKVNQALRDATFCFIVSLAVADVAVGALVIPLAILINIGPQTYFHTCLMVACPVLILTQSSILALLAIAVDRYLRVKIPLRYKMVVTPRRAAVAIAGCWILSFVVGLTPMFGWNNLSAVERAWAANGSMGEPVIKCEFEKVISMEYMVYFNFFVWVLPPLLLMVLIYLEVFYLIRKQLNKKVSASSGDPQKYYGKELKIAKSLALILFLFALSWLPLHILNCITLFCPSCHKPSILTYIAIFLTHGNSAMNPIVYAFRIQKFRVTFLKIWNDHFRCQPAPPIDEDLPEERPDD
Excerpt: as §1
Receptor & Ion-Channel Screening
CEREP ExpresSProfile panel

BRD4 BD1 L/V [1] = target: T1, BRD4 BD1 L/V (Homo sapiens, UniProt O60885, L94V); experiment: competitive AlphaLISA; assay type: binding; conditions: total compound concentration
BRD4 BD2 L/V = BRD4 BD2 L/V (Homo sapiens, UniProt O60885, L387V); experiment: ITC; assay type: binding
[2] = WT Cell Cytotoxicity (CellTiter-Glo); conditions: human, MV4-11 cells (BET-dependent AML cell line)
MV4-11 = experiment: WT Cell Cytotoxicity (CellTiter-Glo); conditions: MV4-11 and HL-60
BRD4 BD1 WT [3] = target: T2, BRD4 BD1 WT (Homo sapiens, UniProt O60885); experiment: competitive AlphaLISA; assay type: binding; conditions: pIC50 BRD4 BD1 WT, separated enantiomers test; total compound concentration
BRD4 BD1 WT [4] = target: T2, BRD4 BD1 WT; experiment: ITC; assay type: binding
5-HT1A (h) = 5-HT1A (h) (Homo sapiens, UniProt P08908); experiment: CEREP ExpresSProfile; conditions: read-out: Mean % of control specific binding (±SD)
5-HT1A (h), sequence (P08908 whole entry): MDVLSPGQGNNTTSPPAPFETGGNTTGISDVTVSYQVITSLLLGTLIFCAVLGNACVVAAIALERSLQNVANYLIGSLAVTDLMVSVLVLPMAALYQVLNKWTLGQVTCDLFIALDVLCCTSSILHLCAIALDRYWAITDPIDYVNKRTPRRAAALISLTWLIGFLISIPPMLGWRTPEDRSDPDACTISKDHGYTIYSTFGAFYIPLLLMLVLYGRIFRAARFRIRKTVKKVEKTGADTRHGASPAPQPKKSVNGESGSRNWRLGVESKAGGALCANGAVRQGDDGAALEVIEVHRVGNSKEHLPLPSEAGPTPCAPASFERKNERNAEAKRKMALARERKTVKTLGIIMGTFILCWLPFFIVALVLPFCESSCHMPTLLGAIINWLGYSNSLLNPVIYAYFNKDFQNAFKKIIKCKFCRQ

GAL2 (h) = GAL2 (h) (Homo sapiens, UniProt O43603); experiment: CEREP ExpresSProfile; conditions: read-out: Mean % of control specific binding (±SD)
GAL2 (h), sequence (O43603 whole entry): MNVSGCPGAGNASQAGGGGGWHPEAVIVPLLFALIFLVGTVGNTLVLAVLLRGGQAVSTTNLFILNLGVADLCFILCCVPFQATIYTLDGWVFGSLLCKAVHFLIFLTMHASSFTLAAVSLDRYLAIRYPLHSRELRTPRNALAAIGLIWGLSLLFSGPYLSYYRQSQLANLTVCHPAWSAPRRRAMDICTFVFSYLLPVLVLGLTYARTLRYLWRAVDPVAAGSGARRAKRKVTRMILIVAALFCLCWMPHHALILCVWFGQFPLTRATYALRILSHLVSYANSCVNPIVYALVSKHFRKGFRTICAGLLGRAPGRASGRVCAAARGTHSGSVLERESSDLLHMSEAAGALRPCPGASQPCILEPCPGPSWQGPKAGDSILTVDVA
Excerpt: as §1
Receptor & Ion-Channel Screening
CEREP ExpresSProfile panel

BRD2 BD1 L/V = BRD2 BD1 L/V (Homo sapiens, UniProt P25440, L110V); experiment: ITC; assay type: binding
BRD2 BD1 L/V, sequence (P25440 71-176 L110V limits assumed): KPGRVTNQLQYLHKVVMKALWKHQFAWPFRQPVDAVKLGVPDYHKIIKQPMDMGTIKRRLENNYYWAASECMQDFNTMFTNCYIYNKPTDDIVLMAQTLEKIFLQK

5-HT1B = 5-HT1B (Rattus norvegicus, UniProt P28564); experiment: CEREP ExpresSProfile; conditions: read-out: Mean % of control specific binding (±SD)
BRD3 BD2 L/V = BRD3 BD2 L/V (Homo sapiens, UniProt Q15059, L345V); experiment: ITC; assay type: binding
BRD3 BD2 L/V, sequence (Q15059 306-416 L345V limits assumed): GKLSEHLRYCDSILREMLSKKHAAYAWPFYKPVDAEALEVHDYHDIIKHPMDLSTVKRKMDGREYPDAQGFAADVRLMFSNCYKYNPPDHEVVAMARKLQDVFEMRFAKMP

[5] = tested on: L/V somatic BET bromodomains; experiment: ITC; conditions: L/V BET bromodomains
alpha 1 (non-selective) = experiment: CEREP ExpresSProfile; assay type: binding; conditions: 1 µM
BRD4 BD1 L/V [6] = target: T1, BRD4 BD1 L/V; experiment: ITC; assay type: binding; conditions: total compound concentration
delta (DOP) (h) = delta (DOP) (h) (Homo sapiens, UniProt P41143); experiment: CEREP ExpresSProfile; conditions: read-out: Mean % of control specific binding (±SD)
delta (DOP) (h), sequence (P41143 whole entry): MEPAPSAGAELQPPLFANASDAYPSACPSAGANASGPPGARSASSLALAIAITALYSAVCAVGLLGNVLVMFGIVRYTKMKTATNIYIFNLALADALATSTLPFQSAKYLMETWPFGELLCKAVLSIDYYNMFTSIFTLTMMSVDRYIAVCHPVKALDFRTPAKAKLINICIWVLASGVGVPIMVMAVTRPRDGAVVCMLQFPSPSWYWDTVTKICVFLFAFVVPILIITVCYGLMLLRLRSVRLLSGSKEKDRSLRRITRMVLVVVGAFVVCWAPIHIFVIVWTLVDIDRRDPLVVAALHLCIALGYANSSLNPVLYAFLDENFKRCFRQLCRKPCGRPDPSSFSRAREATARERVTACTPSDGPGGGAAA
Excerpt: as §1
Receptor & Ion-Channel Screening
CEREP ExpresSProfile panel

KV channel = experiment: CEREP ExpresSProfile; assay type: binding; conditions: 1 µM
Excerpt: as §1
Receptor & Ion-Channel Screening
CEREP ExpresSProfile panel

BRD3 BD2 WT = BRD3 BD2 WT (Homo sapiens, UniProt Q15059); experiment: ITC; assay type: binding
BRD3 BD2 WT, sequence (Q15059 306-416): as the sequence (Q15059 306-416 L345V limits assumed) above, with V40L counted along it

BRD3 BD1 L/V = BRD3 BD1 L/V (Homo sapiens, UniProt Q15059, L70V); experiment: ITC; assay type: binding
BRD3 BD1 L/V, sequence (Q15059 24-144 L70V limits assumed): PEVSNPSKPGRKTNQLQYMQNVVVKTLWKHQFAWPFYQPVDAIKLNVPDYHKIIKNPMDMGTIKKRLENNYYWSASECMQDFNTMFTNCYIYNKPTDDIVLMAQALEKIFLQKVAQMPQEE

BRD4 BD2 WT = BRD4 BD2 WT (Homo sapiens, UniProt O60885); experiment: ITC; assay type: binding
BRD2 BD1 WT = BRD2 BD1 WT (Homo sapiens, UniProt P25440); experiment: ITC; assay type: binding
BRD2 BD1 WT, sequence (P25440 71-176): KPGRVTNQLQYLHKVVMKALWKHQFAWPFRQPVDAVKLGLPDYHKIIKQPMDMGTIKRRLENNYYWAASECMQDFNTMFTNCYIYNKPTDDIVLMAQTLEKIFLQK

[7] = tested on: 55 receptors, transporters and ion channels; experiment: receptor, transporter and ion channel screen; assay type: binding; conditions: 1 μM, whole panel with the exception of MT1
V1a (h) = V1a (h) (Homo sapiens, UniProt P37288); experiment: CEREP ExpresSProfile; conditions: read-out: Mean % of control specific binding (±SD)
5-HT6 (h) = 5-HT6 (h) (Homo sapiens, UniProt P50406); experiment: CEREP ExpresSProfile; conditions: read-out: Mean % of control specific binding (±SD)
5-HT6 (h), sequence (P50406 whole entry): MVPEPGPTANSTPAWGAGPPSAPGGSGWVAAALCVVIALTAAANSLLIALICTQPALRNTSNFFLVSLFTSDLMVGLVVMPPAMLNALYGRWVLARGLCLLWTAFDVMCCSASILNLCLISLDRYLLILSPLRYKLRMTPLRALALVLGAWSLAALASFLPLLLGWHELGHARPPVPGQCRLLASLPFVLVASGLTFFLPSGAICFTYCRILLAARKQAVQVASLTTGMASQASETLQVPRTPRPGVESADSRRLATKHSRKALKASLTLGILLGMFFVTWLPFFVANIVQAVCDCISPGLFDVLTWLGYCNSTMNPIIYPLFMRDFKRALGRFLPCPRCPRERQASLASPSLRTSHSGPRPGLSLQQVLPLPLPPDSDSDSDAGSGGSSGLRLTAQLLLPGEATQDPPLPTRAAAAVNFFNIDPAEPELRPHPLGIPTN

alpha 2 (non-selective) = experiment: CEREP ExpresSProfile; assay type: binding; conditions: 1 µM
Y1 (h) = Y1 (h) (Homo sapiens, UniProt P25929); experiment: CEREP ExpresSProfile; conditions: read-out: Mean % of control specific binding (±SD)
Y1 (h), sequence (P25929 whole entry): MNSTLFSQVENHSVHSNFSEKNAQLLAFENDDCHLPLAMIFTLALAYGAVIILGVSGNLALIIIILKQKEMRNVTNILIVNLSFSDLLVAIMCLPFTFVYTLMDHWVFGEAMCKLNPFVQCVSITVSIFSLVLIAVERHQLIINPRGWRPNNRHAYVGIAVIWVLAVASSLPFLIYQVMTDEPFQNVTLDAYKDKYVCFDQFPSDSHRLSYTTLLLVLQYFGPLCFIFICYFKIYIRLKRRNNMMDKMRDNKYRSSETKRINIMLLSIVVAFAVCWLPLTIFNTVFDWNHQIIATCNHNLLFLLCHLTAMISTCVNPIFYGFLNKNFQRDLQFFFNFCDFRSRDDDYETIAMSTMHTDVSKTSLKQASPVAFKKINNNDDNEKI

CB1 (h) = CB1 (h) (Homo sapiens, UniProt P21554); experiment: CEREP ExpresSProfile; conditions: read-out: Mean % of control specific binding (±SD)
Excerpt: as §1
Receptor & Ion-Channel Screening
CEREP ExpresSProfile panel

kappa (KOP) = kappa (KOP) (Rattus norvegicus, UniProt P34975); experiment: CEREP ExpresSProfile; conditions: read-out: Mean % of control specific binding (±SD)
kappa (KOP), sequence (P34975 whole entry): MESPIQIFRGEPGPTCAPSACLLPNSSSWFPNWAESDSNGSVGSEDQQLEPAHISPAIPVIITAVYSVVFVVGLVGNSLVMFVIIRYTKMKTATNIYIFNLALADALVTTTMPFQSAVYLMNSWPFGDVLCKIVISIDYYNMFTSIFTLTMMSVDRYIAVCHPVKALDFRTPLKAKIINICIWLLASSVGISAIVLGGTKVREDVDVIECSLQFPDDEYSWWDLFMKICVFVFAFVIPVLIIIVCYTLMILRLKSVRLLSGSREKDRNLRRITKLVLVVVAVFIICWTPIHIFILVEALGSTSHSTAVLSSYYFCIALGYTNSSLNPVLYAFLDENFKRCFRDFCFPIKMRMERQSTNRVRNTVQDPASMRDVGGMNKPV
Excerpt: as §1
Receptor & Ion-Channel Screening
CEREP ExpresSProfile panel

MT1 (ML1A) (h) = MT1 (ML1A) (h) (Homo sapiens, UniProt P48039); experiment: CEREP ExpresSProfile; assay type: binding
MT1 (ML1A) (h), sequence (P48039 whole entry): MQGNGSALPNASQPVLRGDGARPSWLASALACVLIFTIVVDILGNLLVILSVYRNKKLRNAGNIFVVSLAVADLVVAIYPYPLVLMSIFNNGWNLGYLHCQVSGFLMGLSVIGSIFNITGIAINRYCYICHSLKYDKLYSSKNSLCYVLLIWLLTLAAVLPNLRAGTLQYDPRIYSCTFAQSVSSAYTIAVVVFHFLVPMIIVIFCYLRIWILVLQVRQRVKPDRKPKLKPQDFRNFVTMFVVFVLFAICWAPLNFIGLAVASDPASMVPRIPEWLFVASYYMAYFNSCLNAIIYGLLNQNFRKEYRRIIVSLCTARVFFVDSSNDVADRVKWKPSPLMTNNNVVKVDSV

BRD2 BD2 L/V = BRD2 BD2 L/V (Homo sapiens, UniProt P25440, L383V); experiment: ITC; assay type: binding
BRD2 BD2 L/V, sequence (P25440 344-455 L383V): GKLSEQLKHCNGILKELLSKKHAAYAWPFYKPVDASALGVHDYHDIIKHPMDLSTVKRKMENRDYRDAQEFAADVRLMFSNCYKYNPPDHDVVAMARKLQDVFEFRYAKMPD

CXCR2 (IL-8B) (h), sequence (P25025 whole entry): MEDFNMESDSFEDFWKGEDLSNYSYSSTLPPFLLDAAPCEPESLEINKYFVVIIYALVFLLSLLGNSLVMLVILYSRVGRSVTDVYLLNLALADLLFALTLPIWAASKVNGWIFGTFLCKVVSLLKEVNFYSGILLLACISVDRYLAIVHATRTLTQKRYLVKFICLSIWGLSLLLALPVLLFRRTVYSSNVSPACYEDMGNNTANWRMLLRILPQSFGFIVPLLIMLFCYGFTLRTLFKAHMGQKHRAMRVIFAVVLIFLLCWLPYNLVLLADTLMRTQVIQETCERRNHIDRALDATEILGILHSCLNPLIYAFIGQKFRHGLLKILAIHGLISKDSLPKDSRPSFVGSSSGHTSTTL
BRD2 BD2 WT, sequence (P25440 344-455): as the sequence (P25440 344-455 L383V) above, with V40L counted along it

With `COC(=O)[C@H](C)[C@@H]1N=C(c2ccc(Cl)cc2)c2ccc(OC)cc2-n2c(C)nnc21` [(2R,3S)-7] the remaining activity at 1 µM (CXCR2 (IL-8B) (h)) was 96%, the Kd (BRD2 BD2 WT) was > 60 µM and the Kd (BRD3 BD1 WT) was 7.5 µM. For the same compound, the remaining activity at 1 µM (D1 (h)) was 116%, the remaining activity at 1 µM (A1 (h)) was 100% and the “ΔpIC50 BRD4 BD1” value (BRD4 BD1 L/V [1]; L/V minus WT) was 1.7. For the same compound, the IC50 (BRD4 BD1 L/V [1]; pIC50 BRD4 BD1 L/V, separated enantiomers test) was 0.158 µM, the Kd (BRD4 BD2 L/V) was 0.3 µM and the CC50 at 48 h [2] was 2.51 µM. For the same compound, the cytotoxicity (MV4-11) was “no cytotoxicity below 1 μM”, the IC50 (BRD4 BD1 WT [3]) was 7.94 µM and the Kd (BRD4 BD1 WT [4]) was 58 ± 4 µM. For the same compound, the “ΔH BRD4 BD1 WT” value (BRD4 BD1 WT [4]; ITC, total compound concentration) was -13.3 ± 0.5 kcal/mol, the remaining activity at 1 µM (5-HT1A (h)) was 104% and the remaining activity at 1 µM (GAL2 (h)) was 96%. For the same compound, the Kd (BRD2 BD1 L/V) was 0.21 µM, the remaining activity at 1 µM (5-HT1B) was 98% and the Kd (BRD3 BD2 L/V) was 0.31 µM. For the same compound, the potency [5] was ~0.2 µM, the “Mean % of control specific binding (±SD)” value (alpha 1 (non-selective)) was 99 (12) % and the “ΔH BRD4 BD1 L/V” value (BRD4 BD1 L/V [6]; ITC) was -7.9 ± 0.1 kcal/mol. For the same compound, the Kd (BRD4 BD1 L/V [6]; Kd BRD4 BD1 L/V, ITC of separated enantiomers and racemates) was 0.17 ± 0.02 µM, the remaining activity at 1 µM (delta (DOP) (h)) was 100% and the “Mean % of control specific binding (±SD)” value (KV channel) was 100 (0) %. It also gave a Kd (BRD3 BD2 WT) of 24 µM, a Kd (BRD3 BD1 L/V) of 0.09 µM and a Kd (BRD4 BD2 WT) of 29 µM. The Kd (BRD2 BD1 WT) was 43 µM, the inhibition [7] was “no more than 20%” and the remaining activity at 1 µM (V1a (h)) was 102%. The remaining activity at 1 µM (5-HT6 (h)) was 112%, the “Mean % of control specific binding (±SD)” value (alpha 2 (non-selective)) was 98 (0) % and the remaining activity at 1 µM (Y1 (h)) was 122%. It also gave a remaining activity at 1 µM (CB1 (h)) of 90%, a remaining activity at 1 µM (kappa (KOP)) of 96% and an inhibition at 1 µM (MT1 (ML1A) (h)) of 77%. The remaining activity at 1 µM (MT1 (ML1A) (h); read-out: Mean % of control specific binding (±SD)) was 23% and the Kd (BRD2 BD2 L/V) was 0.2 µM.
